Data set [1] is described as follows: Methadone maintenance subjects: serum 6β-naltrexol pharmacokinetics. It counts as in vivo, human. The settings on record: 1.0 mg dose. How it is done: Using an assay with a lower limit of quantification of 0.5 ng/mL, 6β-naltrexol was detectable in plasma for only six hours. Determination of terminal half-life of elimination was not feasible because of lack of sufficient assay sensitivity.

The test system of data set [2] is hydrocodone induced GI inhibition. Briefly: GI transit assay (charcoal meal): reversal of hydrocodone induced GI inhibition.

We go through one substance from patent publication US8748448B2, “Combination analgesic employing opioid agonist and neutral antagonist” (AIKO Biotechnology, priority 2007, dated 2014).

For orientation: AUC means the area under the concentration-time curve, a measure of exposure. High values mean high exposure, low ones low exposure. Broadly, the Cmax is the highest concentration seen after dosing. Turning to 6β-naltrexol, the AUC in data set [1] (Subject 1) amounted to 7.8 ng·h/mL; in data set [1] (Subject 2), 7.6 ng·h/mL. Further, the CL in data set [1] (Subject 1) amounted to 128 L/h; in data set [1] (Subject 2), 131 L/h. The t1/2 is 2.2 h in data set [1] (Subject 1) and 2.43 h in data set [1] (Subject 2). The same substance registered a peak concentration (Cmax) in data set [1] (Subject 2, serum) of 3.2 ng/mL. The “GI Transit ID50” value in data set [2] (antagonist i.v., hydrocodone A90 3.2 mg/kg i.v.) amounted to 0.0443 mg/kg; in data set [2] (antagonist p.o. co-administered with hydrocodone A90 32 mg/kg p.o.), 1.290 mg/kg; in data set [2] (antagonist p.o., hydrocodone A90 3.2 mg/kg i.v.), 0.410 mg/kg. The induction of diarrhea result in data set [2] (on administration of the antagonist) is listed as “absent”.
